Measured values taken from patent publication US12441725B2, “ISO-citrate dehydrogenase (IDH) inhibitor” (ZHEJIANG METON PHARMACEUTICAL CO., LTD, priority 2019, dated 2025).

Legend:
IDH1 R132H = biological target: T1, IDH1 R132H (Homo sapiens, UniProt O75874, R132H); experiment: Biochemical assay for IDH inhibition (NADPH fluorescence), mutant IDH1 R132H; conditions: 50 nM IDH1-R132H, 1 hour pre-incubation, in triplet
T1 construct: 6xHis
Source text: (§1) The present disclosure provides a biochemical assay method for detecting the IDH inhibition and selectivity of the compounds by detecting IDH enzyme activity directly.
(§2) Wild-type IDH enzymes convert NADP^+ to NADPH when catalyzing the α-KG producing reaction. Mutant IDH enzymes convert NADPH to NADP^+ when catalyzing the D-2-HG producing reaction. So, the activity of wild-type and mutant IDH1/2 could be measured by monitoring NADPH level change as NADPH is fluorescent (Excitation 340 nm, Emission 460 nm). By monitoring the change of NADPH level in the reaction, the enzyme activity could be determined rapidly and efficiently and IC50 of a compound could also be assayed.
(§3) The test compounds are prepared into 50 mM stock solutions in DMSO and stored at −20° C. Each test compound stock is further diluted to obtain a 100× stock solution at a concentration of 400 μM, 200 μM, 100 μM, 50 μM, 25 μM, 12.5 μM, 6.25 μM and 3.125 μM, respectively, for the final use on the day of test (the concentration range of 100× stock solutions might be adjusted to cover the estimated IC50 of a specific test compound).
(§4) Inhibition of Mutant IDH1 (R132H or R132C):
(§5) To assay the enzymatic activity of mutant IDH1 proteins, 25 nM IDH1-R132C or 50 nM IDH1-R132H protein solutions are prepared in 20 mM Tris-HCl pH7.5, 150 mM NaCl, 10 mM MgCl2, 1 mM DTT, 0.05 mg/ml BSA and 1.33 mM α-KG. 148 μL 25 nM IDH1-R132C or 50 nM IDH1-R132H protein solutions are mixed with 2 μL DMSO (vehicle control for test compounds) or an above-mentioned 100× stock solution of a test compound and incubated for 1 hour at room temperature. Extra reactions containing 148 μL no-enzyme solution (20 mM Tris-HCl pH7.5, 150 mM NaCl, 10 mM MgCl2, 1 mM DTT, 0.05 mg/ml BSA and 1.33 mM α-KG) and 2 μL DMSO are also set up as background controls. Then each reaction is initiated by adding 50 μL 80 μM NADPH solution prepared in 20 mM Tris-HCl pH7.5, 150 mM NaCl, 10 mM MgCl2, 1 mM DTT and 0.05 mg/ml BSA. BioTek Synergy H1 Microplate reader (BioTek Instruments Inc., Winooski, U.S.) is employed to monitor the NADPH fluorescence (Excitation 340 nm, Emission 460 nm) every 42 seconds for 15 minutes. NADPH change rate is determined according to the linear phase of the fluorescence-time curve and results from the background control reactions are used as background subtraction to calculate the net NADPH change rates of other reactions. The net NADPH change rates from the vehicle control reactions are used as 100% enzymatic activity and thus the relative enzymatic activity of reactions with test compounds added could be determined. Then a dose-response curve is drawn for each test compound and the corresponding IC50 is calculated. The IC50 value is used to evaluate the inhibition and selectivity of each test compound on the IDH enzymatic activity.
(§6) The IDH inhibition activity of the compounds were assessed according to Test 2 of the Biological Assay section. The test for mutant IDH1 R132H and IDH1 R132C inhibition of each compound was carried out in triplet. As used in Table 5, “A” refers to an inhibitory activity against IDH1 R132H or IDH1 R132C with an IC50<0.1 μM; “B” refers to an inhibitory activity against IDH1 R132H or IDH1 R132C with an IC50 from 0.1 μM to 0.5 μM; “C” refers to an inhibitory activity against IDH1 R132H or IDH1 R132C with an IC50 from 0.5 μM to 1 μM; “D” refers to an inhibitory activity against IDH1 R132H or IDH1 R132C with an IC50>1 μM.

IDH1 R132C = biological target: T2, IDH1 R132C (Homo sapiens, UniProt O75874, R132C); experiment: Biochemical assay for IDH inhibition (NADPH fluorescence), mutant IDH1 R132C; conditions: 25 nM IDH1-R132C, 1 hour pre-incubation, in triplet
T2 construct: 6xHis
Source text: as §1, §2, §3, §4, §5, §6

[1] = biological target: T3, IDH (endogenous IDH1 R132C) in HT1080 cell (Homo sapiens, UniProt O75874, R132C); experiment: Cell-based assay for IDH inhibition (decrease of D-2-HG) in HT1080 cells; conditions: human fibrosarcoma cell line HT1080, 16 hours treatment, D-2-HG by LC-MS, in triplet
T3 construct: which harbor endogenous heterozygous IDH1 R132C and R132H mutation respectively and accumulate D-2-HG
Source text: The present disclosure also provides a cell-based method for assaying IDH inhibition and selectivity of the compounds in human fibrosarcoma cell line HT1080 and cholangiocarcinoma cell line HCCC 9810, which harbor endogenous heterozygous IDH1 R132C and R132H mutation respectively and accumulate D-2-HG. Tumor -derived IDH mutant lost its normal activity of producing α-KG, and gained a new activity of producing D-2-HG. D-2-HG is a metabolite specifically elevated in tumor cells expressing mutant IDH1 or IDH2 proteins. When treating such mutant IDH-expressing tumor cells with an effective IDH inhibitor, the synthesis of D-2-HG is blocked, and D-2-HG concentration is decreased by the oxidation reaction catalyzed by the endogenous D-2-HG dehydrogenase.
To perform a cell-based IDH inhibition assay, HT1080 and HCCC 9810 cells (or other cell lines harboring different IDH mutations) are cultured in DMEM supplemented with 10% FBS. The cells are treated with compounds of present disclosure at various different concentrations. 16 hours after the treatment, culture medium supernatants are removed and cell metabolites are extracted by 40% methanol and 40% acetonitrile in water (pre-chilled under −80° C.) at 4° C. for 1 hour. The extract supernatants are collected and cell debris are removed via high speed centrifugation. The resulting metabolite extracts are analyzed on an Agilent LC-MS system (model: 1290-6470) for 2-HG and glutamate concentration. A HILIC-Z column (2.1 mm×100 mm, […]) is employed on HPLC. Mobile phase A is 15 mM CH3COONH4 and 0.3% NH3·H2O in water. Mobile phase B is 15 mM CH3COONH4 and 0.3% NH3·H2O in 90% MeCN/10% H2O solvent. An 19% solvent A and 81% solvent B isocratic gradient method is used at a flow rate of 0.3 ml/min. D-2-HG is ionized under negative ion spray mode and detected through the multiple-reaction monitoring of a mass transition pair at m/z=147.0/128.9 and 147.0/85.1. Glutamate is ionized under ion spray mode and detected on negative polarity multiple-reaction monitoring of a mass transition pair at m/z=146/102 and 146/128 and its level is used to normalize 2-HG concentration. The activity of cellular mutant IDH proteins in the presence of each test compound at different concentrations can be represented by relative D-2-HG concentration to negative control samples (i.e., cells are treated with DMSO only), and the IC50 value could be determined to evaluate the inhibition and selectivity of each test compound on the IDH enzymatic activity.
The IDH inhibition activity of the compounds were assessed in human fibrosarcoma cell line HIT1080 according to Test 3 of the Biological Assay section. The test for IDH inhibition of each compound was carried out in triplet. As used in Table 6, “A” refers to an IDH inhibitory activity with an IC50<0.1 μM; “B” refers to an IDH inhibitory activity with an IC50 from 0.1 μM to 0.5 μM; “C” refers to an IDH inhibitory activity with an IC50 from 0.5 μM to 1 μM; “D” refers to an IDH inhibitory activity with an IC50>1 μM.

T1 sequence (O75874 whole entry R132H): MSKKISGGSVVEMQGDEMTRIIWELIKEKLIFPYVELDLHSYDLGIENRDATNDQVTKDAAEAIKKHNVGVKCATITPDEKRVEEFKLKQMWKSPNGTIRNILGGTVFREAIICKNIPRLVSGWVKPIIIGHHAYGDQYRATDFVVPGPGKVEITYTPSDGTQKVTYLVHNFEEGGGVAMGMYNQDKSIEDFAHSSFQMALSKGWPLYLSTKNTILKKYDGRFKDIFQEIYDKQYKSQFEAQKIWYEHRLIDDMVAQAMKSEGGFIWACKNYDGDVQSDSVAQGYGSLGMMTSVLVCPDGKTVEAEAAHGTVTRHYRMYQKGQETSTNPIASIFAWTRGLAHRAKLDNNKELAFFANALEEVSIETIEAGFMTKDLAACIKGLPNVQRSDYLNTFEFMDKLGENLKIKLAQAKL
T2 sequence (O75874 whole entry R132C): as the sequence (O75874 whole entry R132H) above, with H132C counted along it
T3 sequence (O75874 2-414 R132C): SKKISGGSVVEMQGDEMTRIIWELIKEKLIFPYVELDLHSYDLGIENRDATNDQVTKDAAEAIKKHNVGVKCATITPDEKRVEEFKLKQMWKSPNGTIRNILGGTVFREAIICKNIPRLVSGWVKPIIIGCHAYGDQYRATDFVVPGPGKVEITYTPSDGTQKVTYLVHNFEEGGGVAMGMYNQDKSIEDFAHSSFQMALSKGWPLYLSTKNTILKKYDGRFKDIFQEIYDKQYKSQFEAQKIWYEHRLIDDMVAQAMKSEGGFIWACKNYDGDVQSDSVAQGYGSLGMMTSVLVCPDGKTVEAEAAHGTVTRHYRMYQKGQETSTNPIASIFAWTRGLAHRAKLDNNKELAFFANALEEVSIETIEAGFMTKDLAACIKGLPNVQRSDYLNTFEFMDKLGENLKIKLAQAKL

| SMILES | IC50 (IDH1 R132H) | IC50 (IDH1 R132C) | IC50 [1] |
| --- | --- | --- | --- |
| Cc1ccc(Oc2ccc([C@H](C)Nc3nccc4c3CN(CC(F)F)C4=O)cc2F)cc1 [Compound 17, (S)-2-(2,2-difluoroethyl)-4-((1-(3-fluoro-4-(p-tolyloxy)phenyl)ethyl)amino)-2,3-dihydro-1H-pyrrolo[3,4-c]pyridin-1-one] | 100 to 500 nM | 100 to 500 nM | > 1000 nM |
| CCN1Cc2c(ccnc2N[C@@H](C)c2ccc(-c3ccnc(C(C)(C)C#N)c3)c(F)c2)C1=O [Compound 84, (S)-2-(4-(4-(1-((2-ethyl-1-oxo-2,3-dihydro-1H-pyrrolo[3,4-c]pyridin-4-yl)amino)ethyl)-2-fluorophenyl)pyridin-2-yl)-2-methylpropanenitrile] | 100 to 500 nM | > 1000 nM | > 1000 nM |
| CCN1Cc2c(ccnc2N[C@@H](C)c2ccc(Oc3cccnc3)c(F)c2)C1=O [Compound 13, (S)-2-ethyl-4-((1-(3-fluoro-4-(pyridin-3-yloxy)phenyl)ethyl)amino)-2,3-dihydro-1H-pyrrolo[3,4-c]pyridin-1-one] | > 1000 nM | > 1000 nM | > 1000 nM |
| CCN1Cc2c(ccnc2N[C@@H](C)c2ccc(-c3ccnc(C(C)(C)C(N)=O)c3)c(F)c2)C1=O [Compound 69, 2-[4-[4-[(1S)-1-[(2-ethyl-1-oxo-3H-pyrrolo[3,4-c]pyridin-4-yl)amino]ethyl]-2-fluoro-phenyl]-2-pyridyl]-2-methyl-propanamide] | > 1000 nM | > 1000 nM | 500 to 1000 nM |
| CCN1Cc2c(ccnc2N[C@@H](C)c2ccc(-c3ccnc(C(=O)C4CC4)c3)c(F)c2)C1=O [Compound 86, (S)-4-((1-(4-(2-(cyclopropanecarbonyl)pyridin-4-yl)-3-fluorophenyl)ethyl)amino)-2-ethyl-2,3-dihydro-1H-pyrrolo[3,4-c]pyridin-1-one] | > 1000 nM | > 1000 nM | > 1000 nM |
| CCN1Cc2c(ccnc2N[C@@H](C)c2cc(F)c(-c3cc(C(C)(C)F)cc(OC)n3)cc2F)C1=O [Compound 120, (S)-4-((1-(2,5-difluoro-4-(4-(2-fluoropropan-2-yl)-6-methoxypyridin-2-yl)phenyl)ethyl)amino)-2-ethyl-2,3-dihydro-1H-pyrrolo[3,4-c]pyridin-1-one] | < 100 nM | < 100 nM | < 100 nM |
| CCN1Cc2c(ccnc2N[C@@H](C)c2cc(F)c(-c3cc(C(C)(C)F)cc(F)n3)cc2F)C1=O [Compound 119, (S)-4-((1-(2,5-difluoro-4-(6-fluoro-4-(2-fluoropropan-2-yl)pyridin-2-yl)phenyl)ethyl)amino)-2-ethyl-2,3-dihydro-1H-pyrrolo[3,4-c]pyridin-1-one] | < 100 nM | < 100 nM | < 100 nM |
| CCN1Cc2c(ccnc2N[C@@H](C)c2cc(F)c(-c3ccnc(C(C)(F)F)c3)cc2F)C1=O [Compound 106, (S)-4-((1-(4-(2-(1,1-difluoroethyl)pyridin-4-yl)-2,5-difluorophenyl)ethyl)amino)-2-ethyl-2,3-dihydro-1H-pyrrolo[3,4-c]pyridin-1-one] | 100 to 500 nM | 100 to 500 nM | 100 to 500 nM |
| CCN1Cc2c(ccnc2N[C@@H](C)c2cc(F)c(-c3cc(C(C)(C)F)c(COC)cn3)cc2F)C1=O [Compound 147, (S)-4-((1-(2,5-difluoro-4-(4-(2-fluoropropan-2-yl)-5-(methoxymethyl)pyridin-2-yl)phenyl)ethyl)amino)-2-ethyl-2,3-dihydro-1H-pyrrolo[3,4-c]pyridin-1-one] | < 100 nM | < 100 nM | < 100 nM |
| CCN1Cc2c(ccnc2N[C@@H](C)c2cc(F)c(-c3cc(C(C)(C)F)nc(OC)n3)cc2F)C1=O [Compound 141, (S)-4-((1-(2,5-difluoro-4-(6-(2-fluoropropan-2-yl)-2-methoxypyrimidin-4-yl)phenyl)ethyl)amino)-2-ethyl-2,3-dihydro-1H-pyrrolo[3,4-c]pyridin-1-one] | < 100 nM | < 100 nM | < 100 nM |
| CCN1Cc2c(ccnc2N[C@@H](C)c2cc(F)c(-c3cc(C(F)(F)F)ncc3O)cc2F)C1=O [Compound 144, (S)-4-((1-(2,5-difluoro-4-(5-hydroxy-2-(trifluoromethyl)pyridin-4-yl)phenyl)ethyl)amino)-2-ethyl-2,3-dihydro-1H-pyrrolo[3,4-c]pyridin-1-one] | > 1000 nM | > 1000 nM | > 1000 nM |
| CCN1Cc2c(ccnc2N[C@@H](C)c2ncc(Cc3ccc(F)c(C)c3)cn2)C1=O [Compound 54, (S)-2-ethyl-4-((1-(5-(4-fluoro-3-methylbenzyl)pyrimidin-2-yl)ethyl)amino)-2,3-dihydro-1H-pyrrolo[3,4-c]pyridin-1-one] | > 1000 nM | > 1000 nM | > 1000 nM |
| CCN1Cc2c(ccnc2N[C@@H](C)c2cc(F)c(-c3cn(C(C)(C)C)cn3)cc2F)C1=O [Compound 160, (S)-4-((1-(4-(1-(tert-butyl)-1H-imidazol-4-yl)-2,5-difluorophenyl)ethyl)amino)-2-ethyl-2,3-dihydro-1H-pyrrolo[3,4-c]pyridin-1-one] | 100 to 500 nM | 100 to 500 nM | 100 to 500 nM |
